Measurements: article PMC2565697, “HLA Class I-T Cell Epitopes from trans-Sialidase Proteins Reveal Functionally Distinct Subsets of CD8^+ T Cells in Chronic Chagas Disease” (PLoS Neglected Tropical Diseases, 2008)
Ends that are not written are not given here.

Legend:
[1] = system: PBMC from chronic Chagas disease subjects; assay: IFN-γ ELISPOT with supertype peptide pools, single peptides or lysate in non-HLA-typed G0 subjects; type: cell-based, human; conditions: single peptides 10 µg/ml, representative results from single individuals, media alone subtracted (media alone 13±10)
Experimental: The number of peptide-specific IFN-γ and IL-2-secreting T cells was determined by ex vivo ELISPOT using commercial kits (Becton & Dickinson, San Diego, CA). Cryopreserved PBMC from chronic chagasic subjects were seeded in triplicate wells at a concentration of 4×10^5/well, and stimulated with individual peptides (10 µg/ml), peptide pools (7–13 peptides per pool, 5 µg/ml/peptide) comprising HLA A01 (2 pools), A02 (2 pools), A03 (2 pools), A24 (2 pools), B07 (1 pool) or B44 (1 pool)-binding peptides or T. cruzi lysate (10 µg/ml) for 16–20 hr at 37°C and 5% CO2. For controls, cells were incubated with complete RPMI, A2-restricted HIV Pol (amino acids 510–518: […]), A2-restricted flu matrix 1 (amino acids 58–66: […]) or 50 ng/ml […] and 500 nM ionomicin (Sigma). Spot forming cells (SFCs) were automatically enumerated using ImmunoSpot analyzer (CTL).
The mean number of SFCs in triplicate wells was obtained for each condition, and the number of specific IFN-γ and IL-2-secreting T cells (net SFCs), was calculated by subtracting the value of the wells containing media alone from the peptide/mitogen-stimulated spot count. Responses were considered significant if a minimum of 25 SFCs/1×10^6 PBMC were present per well, and additionally, this number was at least twice the value of wells with media alone.
The number of annotated T. cruzi genes containing supertype-binding epitopes was then used to prioritize peptides to be assessed for recognition by CD8^+ T cells from a group of non-HLA-typed chagasic subjects (Table 2). IFN-γ ELISPOT responses to peptide pools containing a total of ninety-six epitopes representing HLA A01 (18 epitopes), HLA A02 (20 epitopes), HLA A03 (20 epitopes), HLA A24 (14 epitopes), HLA B07 (11 epitopes) and HLA-B44 (13 epitopes) supertypes were evaluated in 25 chronic Chagas disease subjects without clinical and radiological evidence of heart disease (G0 status) regardless of their HLA type. […] Four subjects had positive responses to more than one supertype (3 of these subjects recognized both HLA-A02 and HLA-A03-binding peptides, Fig. 1). It is noteworthy that responses to HLA-A02 and HLA03 supertype-restricted epitopes covered 77% of the total responses detected, consistent with the high worldwide frequency of these alleles.

HLA-A2.1 molecule = HLA-A2.1 molecule (Homo sapiens, UniProt P04439, D140Y/D185E/D98H/E176V/E277Q/G131W/G231S/I119V/I121R/I166T/I218V/L300P/L318F/N151K/N90K/P208A/P217A/Q86G/Q94H/R138H/R169H/T345S); assay: HLA-A class I binding assay (competitive inhibition of radiolabeled probe peptide); conditions: competitive inhibition of binding of radiolabeled standard probe peptide to purified detergent-solubilized HLA-A2.1
[2] = system: PBMC from HLA-A2.1+ patients with chronic Chagas disease; assay: IFN-γ ELISPOT with individual HLA-A0201-binding ts peptides in HLA-A2.1+ subjects; type: cell-based, human; conditions: 16–20 hr

Sequence	No. Net IFN-γ SFCs/10^6 PBMC [1] [SFCs/10^6 PBMC]	IC50 (HLA-A2.1 molecule) [nM]	further results
FLYNRPLNS	18	–	–
FVSPSLVSA	18	–	–
LLGLWVFAAL [Ts 2]	–	36	–
HNFTLVASV	15	–	–
FQGAWAEWPV	32	–	–
AVAEAQCKK	18	–	–
FTNNKFTLS [Ts 68]	–	> 50000	No. of positive responders/total no. of subjects assayed (%), G0 ([2]; HLA-A2.1+ patients group G0, peptide 10 µg/ml, 4×10^5 PBMC/well, positive: >=25 SFCs/10^6 PBMC and at least twice media alone): 0/6; No. of positive responders/total no. of subjects assayed (%), G1 ([2]; HLA-A2.1+ patients group G1, peptide 10 µg/ml): 0/5; No. of positive responders/total no. of subjects assayed (%), G2/G3 ([2]; HLA-A2.1+ patients group G2/G3, peptide 10 µg/ml): 0/8
FANYNFTLL [Ts 51]	–	1500	–
FLSHNFTLVF [Ts 27]	–	0.61	–
FANYNFTLV [Ts 48]	–	0.47	–
FANYKFTLV [Ts 44]	–	49	–
TSAVLLLLVV	18	–	–
FLSHDFTLV [Ts 24]	–	0.46	–
LLGLWGLATA [Ts 6]	–	24	–
RVLLLLLLGL	20	–	–
ELLRPTTLV [Ts 52]	–	2410	–
RLLPSLLLLL [Ts 4]	–	0.8	–
FVDYNFSLV [Ts 47]	–	1.1	–
LLLGLWGFA	30	–	–
FVNHRFTLV [Ts 37]	–	304	–
LLLLVVMMCC	18	–	–
GLLPSLLLLL [Ts 3]	–	3.1	–

Sequence	No. Net IFN-γ SFCs/10^6 PBMC [1] [SFCs/10^6 PBMC]	IC50 (HLA-A2.1 molecule) [nM]	further results
LLGLWGTAAL [Ts 13]	–	499	–
NVMLVTLPV	18	–	–
LWLTDNTHI	463	–	–
FTLVASVTI	35	–	–
FANHKFTLV [Ts 38]	–	148	–
HLFYSAVLL	40	–	–
LVTLPVYSK	15	–	–
FVNYNFTLV [Ts 45]	–	0.25	–
IANYNFTLV [Ts 56]	–	29600	–
FTLVATVSI	70	–	–
MLSRVAAVK	38	–	–
RVSRPTTVV [Ts 58]	–	2490	–
IYMLVGKYS	65	–	–
VALMLQGNK	18	–	–
VTDNNRSFY	30	–	–
ITATIEGRK	50	–	–
FANNKFTLV [Ts 43]	–	116	–
FVSCDFTIV [Ts 35]	–	30	–
MLVTLPVYS	15	–	–
FTSAVLLLL	25	–	–
SLSHYFTLVF [Ts 26]	–	1.6	–
FANHDFTLV [Ts 34]	–	101	–
